Experimental data as given in PubChem BioAssay AID328 (DTP/NCI, 2004).
“And” between values parts separate entries of the source, which are not always exact repeats. Equal entries are not always repeated. Inconclusive results and toxic doses are left out.

Test system: BDF1 mice, P388 leukemia ip, median survival T/C
Experiment: NCI In Vivo Anticancer Drug Screen. Data for tumor model P388 Leukemia (intraperitoneal) in B6D2F1 (BDF1) mice
Conditions: endpoint: median survival time, higher = longer survival
Outline: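 Reported as T/C, where T is the survival measurement in dosed animals and C the same measurement in vehicle controls.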

[1] = dose: 100.0 mg/kg/injection, schedule: Q04DX003 (ip), vehicle: Klucel (hydroxypropylcellulose) (HPC)
[2] = dose: 200.0 mg/kg/injection, schedule: Q04DX003 (ip), vehicle: Klucel (hydroxypropylcellulose) (HPC)
[3] = dose: 50.0 mg/kg/injection, schedule: Q01DX009 (ip), vehicle: saline with Tween-80
[4] = dose: 100.0 mg/kg/injection, schedule: Q01DX009 (ip), vehicle: saline with Tween-80
[5] = dose: 200.0 mg/kg/injection, schedule: Q01DX009 (ip), vehicle: saline with Tween-80
[6] = dose: 100.0 mg/kg/injection, schedule: Q01DX009 (ip), vehicle: saline
[7] = dose: 200.0 mg/kg/injection, schedule: Q01DX009 (ip), vehicle: saline
[8] = dose: 400.0 mg/kg/injection, schedule: Q01DX009 (ip), vehicle: saline

For CC(=O)O[C@H]1CC[C@@]2(C)C(=CC[C@H]3[C@@H]4CC[C@H](O)[C@@]4(C)CC[C@@H]32)C1, the T/C [1] was 104 % of control, the T/C [2] was 100 % of control and the T/C (dose: 400.0 mg/kg/injection, schedule: Q04DX003 (ip), vehicle: Klucel (hydroxypropylcellulose) (HPC)) was 90 % of control.
For N/C(=N\N=C\c1ccc(-c2ccccc2)cc1)N[N+](=O)[O-], the T/C (dose: 25.0 mg/kg/injection, schedule: Q01DX010 (ip), vehicle: carboxymethylcellulose (CMC)) was 100 % of control, the T/C (dose: 50.0 mg/kg/injection, schedule: Q01DX010 (ip), vehicle: carboxymethylcellulose (CMC)) was 100 % of control and the T/C (dose: 100.0 mg/kg/injection, schedule: Q01DX010 (ip), vehicle: carboxymethylcellulose (CMC)) was 100 % of control. For the same compound, the T/C (dose: 200.0 mg/kg/injection, schedule: Q01DX010 (ip), vehicle: carboxymethylcellulose (CMC)) was 100 % of control.
COC(=O)C(NC(=O)c1ccccc1)=C(COC(C)=O)COC(C)=O was tested, and the T/C (dose: 100.0 mg/kg/injection, schedule: Q04DX003 (ip), vehicle: saline sonified) was 95 % of control, the T/C (dose: 200.0 mg/kg/injection, schedule: Q04DX003 (ip), vehicle: saline sonified) was 100 % of control and the T/C (dose: 400.0 mg/kg/injection, schedule: Q04DX003 (ip), vehicle: saline sonified) was 110 % of control.
In the case of C(=C\c1nc2ncccn2n1)/c1ccccc1, the T/C [3] is reported as 101 % of control, the T/C [4] is reported as 87 % of control and the T/C [5] is reported as 100 % of control.
Nc1nc(=S)c2[nH]c(N=Nc3ccc(S(=O)(=O)Nc4ncccn4)cc3)nc2[nH]1 was tested, and the T/C (dose: 50.0 mg/kg/injection, schedule: Q01DX009 (ip), vehicle: Klucel (hydroxypropylcellulose) (HPC)) was 118 % of control, the T/C (dose: 50.0 mg/kg/injection, schedule: Q04DX003 (ip), vehicle: Klucel (hydroxypropylcellulose) (HPC)) was 108 % of control and the T/C (dose: 100.0 mg/kg/injection, schedule: Q01DX009 (ip), vehicle: Klucel (hydroxypropylcellulose) (HPC)) was 100 % of control. For the same compound, the T/C [1] was 108 % of control, the T/C (dose: 200.0 mg/kg/injection, schedule: Q01DX009 (ip), vehicle: Klucel (hydroxypropylcellulose) (HPC)) was 86 % of control and the T/C [2] was 112 % of control.
With CCCOP(=S)(N1CC1C)N1CC1(C)C (stereo unspecified) the T/C (dose: 33.0 mg/kg/injection, schedule: Q01DX009 (ip), vehicle: saline with Tween-80) was 154 % of control, the T/C [3] was 186 % of control and the T/C (dose: 75.0 mg/kg/injection, schedule: Q01DX009 (ip), vehicle: saline with Tween-80) was 190 % of control. For the same compound, the T/C (dose: 100.0 mg/kg/injection, schedule: Q04DX003 (ip), vehicle: saline with Tween-80) was 159 % of control and 166 % of control, the T/C (dose: 150.0 mg/kg/injection, schedule: Q04DX003 (ip), vehicle: saline with Tween-80) was 208 % of control and the T/C (dose: 200.0 mg/kg/injection, schedule: Q04DX003 (ip), vehicle: saline with Tween-80) was 154 % of control.
In the case of C#CC1(O)CC[C@H]2[C@@H]3CCC4=CCCC[C@@H]4[C@H]3CC[C@@]21C (stereo partly specified), the T/C [6] is reported as 95 % of control, the T/C (dose: 100.0 mg/kg/injection, schedule: Q04DX003 (ip), vehicle: alcohol) is reported as 100 % of control and the T/C [7] is reported as 90 % of control. The T/C (dose: 200.0 mg/kg/injection, schedule: Q04DX003 (ip), vehicle: alcohol) was 95 % of control, the T/C [8] was 86 % of control and the T/C (dose: 400.0 mg/kg/injection, schedule: Q04DX003 (ip), vehicle: alcohol) was 105 % of control.
In the case of CC(=O)N1CCCCCC1=O, the T/C [3] is reported as 104 % of control, the T/C [4] is reported as 89 % of control and the T/C [5] is reported as 104 % of control. The T/C (dose: 400.0 mg/kg/injection, schedule: Q01DX009 (ip), vehicle: saline with Tween-80) was 90 % of control.
For Cc1nn(C)c(N)c1C#N, the T/C (dose: 12.5 mg/kg/injection, schedule: Q01DX009 (ip), vehicle: saline) was 87 % of control, the T/C (dose: 25.0 mg/kg/injection, schedule: Q01DX009 (ip), vehicle: saline) was 94 % of control and the T/C (dose: 25.0 mg/kg/injection, schedule: Q04DX003 (ip), vehicle: saline) was 103 % of control. For the same compound, the T/C (dose: 50.0 mg/kg/injection, schedule: Q01DX009 (ip), vehicle: saline) was 87 % of control, the T/C (dose: 50.0 mg/kg/injection, schedule: Q04DX003 (ip), vehicle: saline) was 97 % of control and the T/C [6] was 101 % of control. For the same compound, the T/C (dose: 100.0 mg/kg/injection, schedule: Q04DX003 (ip), vehicle: saline) was 92 % of control, the T/C [7] was 100 % of control and the T/C (dose: 200.0 mg/kg/injection, schedule: Q04DX003 (ip), vehicle: saline) was 97 % of control. For the same compound, the T/C [8] was 92 % of control and the T/C (dose: 400.0 mg/kg/injection, schedule: Q04DX003 (ip), vehicle: saline) was 97 % of control.
